# Measured values published in publication PMC7083937, “The ribosome-associated complex RAC serves in a relay that directs nascent chains to Ssb” (Nature Communications, 2020).
# How the values were obtained:
# nascent Pgk1-150 = assay: crosslinking to ribosome-bound nascent chain; type: binding, Saccharomyces cerevisiae; details: wild type translation extract; BS3; compared with Pgk1-50
# From the text: (§1) DNA templates for transcription reactions were generated by PCR using pSPUTK-Pgk1[20] as a template. Reverse primers were designed such, that PCR products encoded different length PGK1 sequences, which all lacked a stop codon. The length of the resulting translation products, which remain ribosome-bound, is indicated in Results and Figure Legends. Transcripts were generated using SP6 polymerase (Thermo Fischer Scientific) as previously described. RNCs were generated via translation reactions primed with the stop codon-less transcripts at 20 °C in the presence of [^35S]-methionine (Hartmann-Analytic) for 80 min[20],[54]. Translation reactions were stopped by the addition of 50 µg/ml cycloheximide final concentration and subsequently RNCs were isolated via centrifugation at 400.000 g for 20 min in a TLA-100 or TLA-100.2 rotor (Beckman Coulter)[20].
# (§2) Chemical crosslinking of ribosome-bound nascent chains to Ssb, Zuo1, or Ssz1 was analyzed essentially as described. In brief, resuspended RNCs were incubated in the presence of 400 µM BS^3 (bis-(sulfosuccinimidyl)-suberate, spacer length 1.14 nm, Thermo Scientific) for 20 min on ice and crosslinking was then quenched by the addition of TRIS base (tris(hydroxymethyl)aminomethane) to a final concentration of 50 mM. Crosslinked protein samples were precipitated by the addition of TCA (final concentration 5%), pellets were collected by centrifugation and were dissolved in dissociation buffer (200 mM TRIS/HCl pH 7.5, 4% SDS; 10 mM EDTA, 100 µg/ml BSA, protease inhibitor mix, 1 mM PMSF). Totals shown in Figs. 1,3 and Supplementary Fig. 1 before (total) and after BS^3 crosslinking (total + BS^3) represent 5% of the dissolved material employed for immunoprecipitation reactions. The resulting denatured protein samples were used to identify crosslink products between Ssb, Zuo1, or Ssz1 and nascent chains via affinity purification under denaturing conditions. To that end, protein A sepharose beads (GE Healthcare) were pre-coated with antibodies directed against Ssb, Zuo1, or Ssz1 and subsequently the denatured crosslinked material was allowed to bind to the beads resuspended in immunoprecipitation buffer (10 mM TRIS/HCl pH 7.5, 150 mM NaCl, 5 mM EDTA, 1% Triton X-100, protease inhibitor mix, 0.5 mM PMSF)[20]. Crosslink products bound to protein A sepharose beads were released by addition of SDS-sample buffer at 95 °C for 10 min. Samples were analyzed on Tris-Tricine gels[56] followed by autoradiography. Loading was normalized according to the signal of [^35S]-labelled nascent Pgk1 in the total prior to crosslinking. Relative crosslinking efficiencies between nascent Pgk1-100 and Zuo1 or Ssz1, respectively were determined as follows. For each biological replicate, band intensities of non-crosslinked nascent Pgk1-100 and of Pgk1-100 crosslink products (XL-Zuo1 or XL-Ssz1) was determined on a single autoradiograph for wild type RAC and the different mutant variants of RAC. The crosslinking efficiency (XL-Zuo1/Pgk1-100 or XL-Ssz1/Pgk1-100) of each sample was calculated and subsequently the ratio of XL-Zuo1/Pgk1-100 or XL-Ssz1/Pgk1-100 in the presence of wild type RAC was set to 1 in order to normalize the biological replicates (see Fig. 3c,d). The original data are provided as a Source Data file.
# nascent Pgk1-40 = assay: crosslinking to ribosome-bound nascent chain; type: binding, Saccharomyces cerevisiae; details: wild type translation extract; BS3
# From the text: as §1, §2
# nascent Pgk1-45 = assay: crosslinking to ribosome-bound nascent chain; type: binding, Saccharomyces cerevisiae; details: wild type translation extract; BS3
# From the text: as §1, §2
# nascent Pgk1-50 = assay: crosslinking to ribosome-bound nascent chain; type: binding, Saccharomyces cerevisiae; details: wild type translation extract; BS3
# From the text: as §1, §2
# nascent Pgk1-100 = assay: crosslinking to ribosome-bound nascent chain; type: binding, Saccharomyces cerevisiae; details: BS3
# From the text: as §1, §2
# For complementation experiments translation reactions were performed in either ∆ssb1∆ssb2 or ∆ssb1∆ssb2∆zuo1∆ssz1 translation extract as indicated. Complementation with purified Ssb1 was performed by adding His6-tagged ScSsb1 at a final concentration of 2 µM to the translation reaction prior to the addition of mRNA. Ribosome-free cytosolic extract of various mutant yeast strains for complementation experiments as indicated in Results and Figure Legends was generated as follows. The A260 of a total cell extract prepared by the glass beads method (see above) was determined, and the total cell extract was subsequently adjusted to a final concentration of 800 mM KOAc. […]
# ribosomes = assay: ribosome-binding assay; set-up: species or system Saccharomyces cerevisiae; details: for fraction of Ssb ribosome-bound: total cell extract
# Experimental: Yeast strains were grown to early log phase on YPD, prior to harvest cycloheximide was added to a final concentration of 100 µg/ml, and subsequently cells were collected via centrifugation at 5000 g. Cell pellets were resuspended in ribosome-binding buffer (20 mM Hepes/KOH pH 7.4, 2 mM Mg(OAc)2, 120 mM KOAc, 100 µg/ml cycloheximide, 2 mM DTT, 1 mM PMSF, protease inhibitor mix) and total cell extracts were prepared by the glass beads method. After a clearing spin at 20.000 g, each 60 µl of the total glass beads extract (A260 between 80 and 100 mAU) was loaded onto a 90 µl sucrose cushion (25% sucrose, 20 mM Hepes/KOH pH 7.4, 120 mM KOAc, 2 mM Mg(OAc)2, 2 mM DTT, 1 mM PMSF, protease inhibitor mix). After centrifugation at 400.000 g at 4 °C for 25 min the cytosolic supernatant was collected and the ribosomal pellet was resuspended in 300 µl ribosome-binding buffer. Aliquots of the total cell extract, cytosolic supernatant, and resuspended ribosomal pellets were precipitated by addition of TCA (trichloroacetic acid) to a final concentration of 5%. TCA pellets were dissolved in SDS-sample buffer and were analyzed on 10% Tris-Tricine gels followed by immunoblotting.
# [1] = Δssb1Δssb2 extract, purified Ssb1, 2 µM, added prior to translation
substance,measurement,setting,value
"Ssb: ribosome-associated Hsp70 homolog of yeast, isoforms SSB1 and SSB2",crosslink to nascent Pgk1-150,nascent Pgk1-150,more efficient crosslinks
same,crosslink to nascent Pgk1-40,nascent Pgk1-40,did not form crosslink products with Pgk1-40 or Pgk1-45
same,crosslink to nascent Pgk1-45,nascent Pgk1-45,did not form crosslink products with Pgk1-40 or Pgk1-45
same,crosslink to nascent Pgk1-50,nascent Pgk1-50,weak crosslink
same,"crosslinking of Ssb to nascent Pgk1 when RAC or Ssz1 is absent from ribosomes, reduced to",nascent Pgk1-100; Fig. 1e set-up,< 1/6
same,crosslink to nascent Pgk1-100,"nascent Pgk1-100; wild type translation extract, compared with Pgk1-50",more efficient crosslinks
same,crosslink of Ssb to nascent Pgk1-100 upon adding purified Ssb,nascent Pgk1-100; [1],restored
same,effect of added purified Ssb on crosslinking to the RAC subunits,nascent Pgk1-100; [1],strongly reduced
same,"crosslink of Ssb to nascent Pgk1-100, dependence on RAC",nascent Pgk1-100; Δzuo1Δssz1Δssb1Δssb2 RNCs complemented with ribosome-free extracts,Only in the presence of wild type RAC nascent Pgk1-100 formed an efficient crosslink to Ssb
same,"ribosome-binding of Ssb when RAC or Ssz1 is absent from ribosomes, reduced to","ribosomes; in vitro translation system, Zuo1ΔN49, no Ssz1, or no Ssz1 and Zuo1",about 1/3
same,fraction of Ssb ribosome-bound,ribosomes; cells expressing RAC-∆N49,about 1/ 3
same,fraction of Ssb ribosome-bound,"ribosomes; wild type, RAC-∆N8, or RAC-∆N16",About 2/3
